In patent US20160030391A1, “METHODS AND COMPOSITIONS FOR IMPROVING COGNITIVE FUNCTION” (THE JOHNS HOPKINS UNIVERSITY, priority 2013, published 2016):
Read-outs that look alike come from different tables or passages of the source.

Legend:
aMCI subjects = assay: Verbal Paired Associates Test - Delayed Recall; assay type: in vivo, human; settings: levetiracetam 125 mg twice a day for two weeks
From the text: Breaks are provided to the subject as needed.

[1] = levetiracetam blood plasma levels in aMCI subjects; assay type: in vivo; settings: human, upon completion of treatment, read-out: mean levetiracetam blood plasma level
From the text: At the end of the first drug/placebo period 2 weeks after the Baseline Visit, the medical, neurological and psychiatric evaluations and cognitive testing are repeated. The subject is also clinically evaluated for suicidal ideation. Blood is drawn again to repeat the standard tests and to determine whether there are any changes related to drug treatment; the subject's blood levetiracetam level is also obtained. All medication dispensed at the Baseline Visit (drug or placebo) is collected and subject compliance with the medication regimen is assessed. The first fMRI session (with cognitive tests) is conducted on the same day, either immediately before or immediately after the clinical assessment. Subjects discontinue first period treatment at this visit.
At approximately 2 weeks after the Washout Visit (i.e., 2 weeks after starting the second treatment period), the medical, neurological and psychiatric evaluations and the cognitive testing are repeated. The subject is clinically evaluated for suicidal ideation. Blood is drawn again to repeat the standard tests and to determine whether there were any changes related to drug treatment; the subject's blood levetiracetam level is also obtained. All medication dispensed at the Washout Visit is collected and subject compliance with the medication regimen is assessed. The second fMRI session (with cognitive tests) is repeated on the same day, either immediately before or immediately after the clinical assessment.
Human – in the human studies described in Examples 3 and 4, a subject's levetiracetam blood plasma level was assessed at each visit. The subject's blood was drawn by the Johns Hopkins Phlebotomy Service and analysis of levetiracetam blood plasma levels was conducted either by the Johns Hopkins Core laboratory or by MedTox Laboratories in St. Paul, Minn. for the 62.5 mg BID cohort, the 125 mg BID cohort and the 250 mg BID cohort.

In the case of CC[C@@H](C(N)=O)N1CCCC1=O [levetiracetam, (2S)-2-(2-oxopyrrolidin-1-yl)butanamide], the “performance in Verbal Paired Associates Test—Delayed Recall” value (aMCI subjects) was “fail to rescue performance”, the concentration at 2 weeks ([1]; 125 mg BID cohort) was 4400 ng/mL and the concentration at 2 weeks ([1]; oral, 62.5 mg BID cohort) was 2880 ng/mL. For the same compound, the concentration at 2 weeks ([1]; oral, 250 mg BID cohort) was 7900 ng/mL.
